Key:
[1] = system: saline-loaded adrenalectomized rats treated with aldosterone; experiment: Subcutaneous vs. oral administration: urinary Na/K in saline-loaded adrenalectomized rats treated with aldosterone; assay type: in vivo; details: antagonizing aldosterone-mediated renal effects
Method: Urinary sodium, potassium and water excretion were measured. The results are expressed as the ratio of excreted urinary sodium to potassium (Na/K) ± SEM.

saline-drinking SHRSP = experiment: Protocol 1: renal pathologic changes in saline-drinking SHRSP; assay type: in vivo, male SHRSP/A3N
Method: Animals. Studies were conducted in accordance with institutional guidelines using male SHRSP/A3N (generations F-75 to F-78), n = 37, from our local colony. These animals were bred from NIH stock, derived from the SHRSP/A3N substrain described originally by Okamoto and coworkers (Okamoto K et al. Circ. Res. 34 and 35 (suppl I):I-143-I-153.). All animals were housed in a room maintained on a 12:12-h light:dark-cycle and an ambient temperature of 22 ± 1°C in the Animal Care Facility at New York Medical College. Rats were weaned at 4 weeks of age and allowed free access to Purina Lab Chow 5001 (Ralston Purina, St. Louis, MO) and tap water until the initiation of experimental protocols.
Eighteen SHRSP were given 1% NaCl to drink and were fed Stroke-Prone Rodent Diet (#39-288, Zeigler Brothers, Inc., Gardners, PA) starting at 8.1 weeks of age. […] Vehicle-control littermates received 2 ml/kg/d of the 0.5% methylcellulose solution. Animals were housed individually in metabolic cages so that measurements of 24-h urine output and protein excretion could be made. Animals were examined each day for neurologic signs of stroke. Systolic arterial pressure and heart rate were measured each week in awake rats. The experiment was terminated after 5 weeks of treatment when the animals were 13.1 weeks of age. Trunk blood was collected into chilled EDTA tubes following rapid decapitation of the animals between 10:00 am and 12:00 pm. Blood was stored at - 20°C for later measurement of plasma aldosterone levels. The kidneys were rapidly removed, weighed, and then preserved in fixative for later histologic examination.
Assays and Analyses. Systolic blood pressure and heart rate of awake animals were measured by tail-cuff plethysmography using a Natsume KN-210 manometer and tachometer (Peninsula Laboratories Inc., Belmont, CA). Rats were warmed at 37°C for 10 min and allowed to rest quietly in a Lucite chamber before measurement of blood pressure. Measurements of urine volume were made gravimetrically. Urinary protein concentration was determined by the sulfosalicylic acid turbidity method. Plasma aldosterone was measured by radioimmunoassay using ^125I-aldosterone as a tracer (Coat-a Count Aldosterone, Diagnostic Products Co., Los Angeles, CA).
Histology. Kidneys were preserved in 10% phosphate-buffered formalin. Coronal sections (2-3 µm) were stained with hematoxylin and eosin and examined by light microscopy in a blinded fashion as previously described (Stier CT et al. J Pharmacol Exp Ther (1992) 260:1410-1415). Glomerular damage was categorized as ischemic or thrombotic. Ischemic lesions were defined as retraction of glomerular capillary tufts with or without appreciable mesangiolysis. Glomerular thrombotic lesions were defined as any one of a combination of the following: segmental to global fibrinoid necrosis, focal thrombosis of glomerular capillaries, swelling and proliferation of intracapillary (endothelial and mesangial) and/or extracapillary cells (crescents), and expansion of reticulated mesangial matrix with or without significant hypercellularity. […] Vascular thrombotic lesions were defined as any one or a combination of the following: mural fibrinoid necrosis, extravasation and fragmentation of red blood cells, and luminal and/or mural thrombosis. Proliferative arteriopathy was characterized by proliferation of markedly swollen myointimal cells with swollen round to ovoid vesicular nuclei surrounded by mucinous extracellular matrix ("onion skinning") often resulting in nodular thickening. Vascular damage was expressed as the number of arteries and arterioles with lesions per 100 glomeruli. The presence of casts and tubular (ischemic) retraction and simplification was assessed semiquantitatively.
Statistical Analysis. Significant effects with respect to treatment and time were determined by two-way analysis of variance. Data with only one grouping variable were analyzed statistically by Student's unpaired t tests. […]

[2] = Form H content of dried solids by X-ray powder diffraction (XPRD); assay type: physicochemical; details: for Estimated Weight Percent of Form H / Form H Peak Area 12° Two Theta Peak: dried solids from methyl ethyl ketone crystallization
Method: The weight percent of the diepoxide or 11,12-epoxide in each sample is given in Tables C-6A and C-6B, respectively. A micro-flea magnetic stirrer was added to each scintillation vial along with 1 mL of methyl ethyl ketone. The vials were loosely capped and the solid dissolved by heating to reflux on a hot plate with magnetic stirring. Once the solids were dissolved, the solutions were allowed to cool to room temperature on the hot plate. Magnetic stirring was maintained during the cooling period. After the solutions reached room temperature, the solids were collected by vacuum filtration and immediately analyzed by X-ray powder diffraction (XPRD). The solids were then placed in a 100°C oven and dried for one hour at ambient pressure. The dried solids were analyzed by XPRD for Form H content by monitoring the area of the Form H diffraction peak at about 12.1 degrees two theta. All XPRD diffraction patterns were recorded using an Inel Multipurpose Diffractometer. Table C-6A
The peak intensities have been normalized for ease of comparison. No Form H was detected for the dried samples corresponding to the methyl ethyl ketone crystallizations performed at doping levels of 0 and 1%. Form H was detected in the dried samples corresponding to the methyl ethyl ketone crystallizations performed at doping levels of 3 and 5%. The area for the Form H diffraction peak at about 12.1 degrees two theta and the estimated Form H content for each sample are given in Table C-6C below. Table C-6C
The peak intensities have been normalized for ease of comparison. No Form H was detected for the dried samples corresponding to the methyl ethyl ketone crystallizations performed at doping levels of 0, 1% and 5%. Form H was detected in the dried samples corresponding to the methyl ethyl ketone crystallization performed at a doping level of 10%. The area for the Form H diffraction peak at 12.1 degrees two theta and estimated Form H content for each sample are given in Table C-6D. Table C-6D
Table C-7B reports the weight fraction of Form H measured in materials dried using either a fluid bed (LAB-LINE/P.R.L. Hi-Speed Fluid Bed Dryer, Lab-Line Instruments, Inc.) or a vacuum oven (Baxter Scientific Products Vacuum Drying Oven, Model DP-32). […] Table C-7B

[3] = oral eplerenone 100 mg/kg/d, preterminal
[4] = 0% 11,12-epoxide in starting eplerenone mixture
[5] = 0% diepoxide in starting eplerenone mixture
[6] = 1% 11,12-epoxide in starting eplerenone mixture
[7] = 1% diepoxide in starting eplerenone mixture
[8] = 3% diepoxide in starting eplerenone mixture
[9] = 5% 11,12-epoxide in starting eplerenone mixture
[10] = 5% diepoxide in starting eplerenone mixture
[11] = 10% 11,12-epoxide in starting eplerenone mixture

## COC(=O)[C@@H]1CC2=CC(=O)CC[C@]2(C)[C@@]23O[C@@H]2C[C@@]2(C)[C@@H](CC[C@@]24CCC(=O)O4)[C@H]13 [Eplerenone, Pregn-4-ene-7,21-dicarboxylic acid, 9,11-epoxy-17-hydroxy-3-oxo-, γ-lactone, methyl ester, (7α, 11α, 17β)-]
[1]
  efficacy of subcutaneous injection vs oral administration: better efficacy than oral administration
saline-drinking SHRSP; 100 mg/kg/d by gavage, 5 weeks
  Glomerular damage, Ischemic: 1.0 ± 1.0 lesions/100 glomeruli
  Glomerular damage, Thrombotic: 0.1 ± 0.1 lesions/100 glomeruli
  Glomerular damage, Total: 1.0 ± 1.0 lesions/100 glomeruli
  Renal angiopathy, Proliferative: 0.1 ± 0.1 lesions/100 glomeruli
  Renal angiopathy, Thrombotic: 1.0 ± 1.0 lesions/100 glomeruli
  Renal angiopathy, Total: 1.0 ± 1.0 lesions/100 glomeruli
saline-drinking SHRSP; 100 mg/kg/d, 5 weeks
  Protein casts, % of tubules: 0.11 ± 0.04%
  tubules displaying ischemic retraction and simplification: 0.5 ± 0.2%
saline-drinking SHRSP; n = 9, P < .01 vs vehicle
  evidence of stroke: none
saline-drinking SHRSP; oral eplerenone 100 mg/kg/d for 5 to 6 weeks
  renal lesions: 1 ± 1%
saline-drinking SHRSP; [3]
  proteinuria (urinary protein excretion): 16 ± 2 mg/day
  severe hypertension (systolic blood pressure): 219 ± 6 mm Hg
[2]; cooling rate (0) 1.5°C/min, endpoint (0) 25°C, 100.8% eplerenone seeded with Form H, analyzed by DSC
  Weight Percent Form H (XPRD): 100 Weight Percent
[2]; cooling rate (0) 1.5°C/min, endpoint (0) 25°C, 100.8% eplerenone seeded with Form H, analyzed by XPRD
  Weight Percent Form H (XPRD): 77 Weight Percent
[2]; cooling rate (+) 3°C/min, cooling endpoint (+) 45°C, impurity level (+) 89.3% purity starting material
  Weight Percent Form H (XPRD): 29 Weight Percent
[2]; cooling rate (-) 0.1°C/min, cooling endpoint (+) 45°C, impurity level (+) 89.3% purity starting material
  Weight Percent Form H (XPRD): 31 Weight Percent
[2]; cooling rate High, end point High, impurity level High, drying: High Fluid Bed
  Weight Percent Form H: 25%
[2]; cooling rate High, end point High, impurity level High, drying: Low Fluid Bed
  Weight Percent Form H: 4.7%
[2]; cooling rate High, end point High, impurity level High, drying: Vacuum Oven
  Weight Percent Form H: 29%
[2]; cooling rate Low, end point Low, impurity level Low, drying: Low Fluid Bed
  Weight Percent Form H: 5.5%
[2]; [4]
  Estimated Weight Percent of Form H: None Detected
  Form H Peak Area 12° Two Theta Peak: None Detected
[2]; [5]
  Estimated Weight Percent of Form H: None Detected
  Form H Peak Area 12° Two Theta Peak: None Detected
[2]; [6]
  Estimated Weight Percent of Form H: None Detected
  Form H Peak Area 12° Two Theta Peak: None Detected
[2]; [7]
  Estimated Weight Percent of Form H: None Detected
  Form H Peak Area 12° Two Theta Peak: None Detected
[2]; [8]
  Estimated Weight Percent of Form H: 10%
  Form H Peak Area 12° Two Theta Peak: 1168
[2]; [9]
  Estimated Weight Percent of Form H: None Detected
  Form H Peak Area 12° Two Theta Peak: None Detected
[2]; [10]
  Estimated Weight Percent of Form H: 30%
  Form H Peak Area 12° Two Theta Peak: 4175
[2]; [11]
  Estimated Weight Percent of Form H: 10-15%
  Form H Peak Area 12° Two Theta Peak: 1541
